Patent publication US10570179B2, “Substituted urea depsipeptide analogs as activators of the CLPP endopeptidase” (priority 2016, dated 2020)
Values after ≈ are worked out from the molar mass of the structure shown. Read-outs that look alike come from different tables or passages of the source. Numbered stars: 1 amine (or outer) side, 2 acyl side, 3 side chain; on linkers, the order of the positions; unused ones are H or OH. Bridge positions count the residues as written; N and C are the ends. Square brackets hold non-standard residues; d marks the D form. Peptide text beside a SMILES is read from it. * marks the point of attachment. Phe(3-CF3) = N[C@@H](Cc1cccc(C(F)(F)F)c1)C(=O)O; Piperazine(2S-CO,4-Me) = CN1CCN[C@H](C(=O)O)C1; Phe(3-Cl) = N[C@@H](Cc1cccc(Cl)c1)C(=O)O; Morpholine(3S-CO) = O=C(O)[C@@H]1COCCN1; Phe(3-Me) = Cc1cccc(C[C@H](N)C(=O)O)c1; NH(4-Cl-2-F-phenyl) = Fc1cc(Cl)ccc1N*; Pro(4R-Me) = C[C@H]1CN[C@H](C(=O)O)C1; Hyp = O=C(O)[C@@H]1C[C@@H](O)CN1; NH(4-Et-phenyl) = CCc1ccc(N*)cc1; NH(4-Me-phenyl) = Cc1ccc(N*)cc1; aThr = C[C@H](O)[C@H](N)C(=O)O; Pip = O=C(O)[C@@H]1CCCCN1; CO = O=C([*:1])[*:2]; X2 = Fc1cc(N*)ccc1Cl

Tests used:
Sa-ClpP = molecular target: T1, Sa-ClpP (Staphylococcus aureus, UniProt Q2G036); assay: ADEP displacement fluorescence polarization assay; type: binding, S. aureus; conditions: displacement of FP probe ADEP 2591 from Sa-ClpP
T1 construct: made in house; host or cells: E. coli BL21 (DE3)
Method: A fluorescence polarization (FP) assay was used to determine the activity of the disclosed compounds in displacing an ADEP analogue from ClpP. Briefly, the assay was performed in black 384 well, flat bottom, low volume plates (Greiner Bio-One, Monroe, N.C., catalog #784076). 20 μL of a pre-equilibrated (1 hr, room temperature) master mix (15 μM Sa-ClpP, 2% DMSO (v/v) and 50 nM FP probe in TrisHCl, pH 8.0)) was pipetted into each well using a Well-Mate (Thermo Scientific, Waltham, Mass.). Sa-ClpP was prepared as described above for the ClpP activation assay. The FP probe was ADEP 2591 (structure shown above). The ADEP 2591 comprises a TAMRA fluorophore linked to a core based on modified ADEP 2378 via a short alkyl linker. Using pin transfer, approximately 0.4 μL (2% v/v DMSO) of each compound or control was added per well. After addition of compounds and controls, plates were allowed to incubate for an additional 120 minutes at room temperature. All assays were performed in triplicate. Polarization was monitored using an EnVision Multilabel reader (Perkin-Elmer, Waltham, Mass.) by exciting the FP probe at 530±25 nm, and monitoring fluorescence intensity of both parallel and perpendicular polarized light at 579±25 nm. Readout was in millipolarization units (mP).
Signal gain and G factors were determined in wells containing 200 μM ADEP 2378, which had been previously verified (data not shown) as containing completely unbound ADEP 2591. Data collected was normalized to values obtained from positive (200 μM ADEP 2378) or negative (DMSO) controls. Curves were fit with non-linear regression using the equation “log [inhibitor] vs. Response-variable slope (four parameters)-symmetrical” in the program Prism 6 (GraphPad Software, La Jolla, Calif. USA, www.graphpad.com). The structures for ADEP 2378 and ADEP 2591 are shown above. ADEP 2378 is (E)-N—((S)-1-(((2R,6S,8aS,14aS,20S,23aS)-2,6-dimethyl-5,8,14,19,23-pentaoxooctadecahydro-1H,5H,14H,19H-pyrido[2,1-i]dipyrrolo[2,1-c:2′,1′-1][1]oxa[4,7,10,13]tetraazacyclohexadecin-20-yl)amino)-1-oxo-3-phenylpropan-2-yl)pent-2-enamide. ADEP 2591 is 5-(3-(3-((6S,9S,11aS,17S,20aS)-6,10-dimethyl-5,8,11,16,20-pentaoxo-17-((S)-2-((E)-pent-2-enamido)-3-phenylpropanamido)hexadecahydro-1H,5H,16H-dipyrrolo[2,1-c:2′,1′-1][1]oxa[4,7,10,13]tetraazacyclohexadecin-9-yl)propyl)thioureido)-2-(6-(dimethylamino)-3-(dimethyliminio)-3H-xanthen-9-yl)benzoate.

Solubility determination = type: physicochemical; conditions: for solubility kinetic at 10 min: 22 °C, aqueous buffer, kinetic from dmso stock
Method: Test compounds were synthesized and supplied by the Department of Chemical Biology and Therapeutics at St. Jude Children's Research Hospital (Memphis, Tenn.). LC-MS chromasolv grade acetonitrile (ACN) was purchased from Fisher Scientific (Loughborough, UK). LC-MS chromasolv grade formic acid was obtained from Sigma-Aldrich (St. Louis, Mo.). Milli-Q water as an ultrapure laboratory grade water was used in aqueous mobile phase.
Chromatographic separation was performed on an Acquity UPLC BEH C18 1.7 μm, 2.1×50 mm column (Waters Corporation, Milford, Mass.) using an Acquity ultra performance liquid chromatography system. The total flow rate was 0.9 mL/min. The sample injection volume was 10 μL. The UPLC column was maintained at 60° C. and the gradient program started at 90% A (0.1% formic acid in MilliQ H2O), changed to 70% A over 0.2 min, to 95% B (0.1% formic acid in ACN) over 1.4 minutes, held for 0.35 minutes, then to 90% A over 0.05 minutes.
Mass data was acquired with an Acquity SQD Mass Spectrometer. The mass spectrometer was operated in positive-ion mode with electrospray ionization. The conditions were as follows: capillary voltage 3.5 kV, cone voltage 30 V, source temperature 150° C., desolvation temperature 350° C., desolvation gas 500 L/hr, cone gas 25 L/hr. Data were acquired using Masslynx v. 4.1 and analyzed using the Quanlynx software suite. A full scan range from m/z=100-1000 in 0.2 s was used to acquire MS data. Both UV and Single ion recording mass spectrometry were used to determine the quantification of the samples.
Stock solutions were prepared by dissolving compounds into DMSO to yield a concentration of 10 mM. Stock solutions were stored at room temperature.
Calibration standards were made by adding stock solutions to DMSO for final concentrations of compounds at concentration of 100, 25, 6.25, 1.563, 0.391 and 0.098 μM.
Solubility test samples were made by adding stock solutions to 200 μL, of DPBS for final concentrations of compounds at 100 μM in a 96-well analytical plate (300 μL, maximum volume in each well). Samples were tested in triplicates. The plate was sealed, shaken at 600 rpm for 10 minutes, and then was centrifuged at 4000 rpm for 20 min at 22° C. 100 μL, of the supernatant was transferred to a new analytical 96-well plate and 10 μL, was injected onto the LCMS system.
Two calibration curves for solubility test samples were analyzed during the quantitation process. The linear regression of test compound peak areas was weighted by 1/x^2. […] Coefficient of determination (R^2) was used to evaluate the linearity of each calibration curve.

T1 sequence (Q2G036 whole entry): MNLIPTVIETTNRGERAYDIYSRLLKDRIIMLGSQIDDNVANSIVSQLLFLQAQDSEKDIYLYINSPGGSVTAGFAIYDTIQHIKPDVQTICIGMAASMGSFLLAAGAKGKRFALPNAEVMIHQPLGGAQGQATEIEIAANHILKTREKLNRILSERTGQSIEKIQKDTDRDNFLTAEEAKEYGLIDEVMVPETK

## Cc1cccc(C[C@H](NC(=O)Nc2ccc(Cl)cc2F)C(=O)N[C@H]2COC(=O)[C@@H]3C[C@@H](C)CN3C(=O)[C@H](C)NC(=O)[C@@H]3CCCCN3C(=O)[C@@H]3C[C@H](N)CN3C2=O)c1 [Compound 12, (S)—N-((2R,6S,8AS,14AS,16S,20S,23AS)-16-AMINO-2,6-DIMETHYL-5,8,14,19,23-PENTAOXOOCTADECAHYDRO-1H,5H,14H,19H-PYRIDO[2,1-I]DIPYRROLO[2,1-C:2′,1′-L][1]OXA[4,7,10,13]TETRAAZACYCLOHEXADECIN-20-YL)-2-(3-(4-CHLORO-2-FLUOROPHENYL)UREIDO)-3-(M-TOLYL)PROPANAMIDE]
Sa-ClpP
  IC50: 6.03 ± 0.3 µM
Solubility determination
  μsol (μM): 24.7 ± 3.7 µM
  solubility kinetic at 10 min: 37.5 ± 13 µM (≈ 30.9 µg/mL)

## CCc1ccc(NC(=O)N[C@@H](Cc2cccc(C)c2)C(=O)N[C@@H]2C(=O)N3C[C@H](O)C[C@H]3C(=O)N3CCOC[C@H]3C(=O)N[C@@H](C)C(=O)N3C[C@H](C)C[C@H]3C(=O)O[C@H]2C)cc1 [Compound 24, (S)-2-(3-(4-ETHYLPHENYL)UREIDO)-N-((6AS,8R,12S,13S,15AS,17R,21S,23AS)-8-HYDROXY-13,17,21-TRIMETHYL-6,11,15,20,23-PENTAOXOOCTADECAHYDRO-6H,11H,15H-[1,4]OXAZINO[3,4-I]DIPYRROLO[2,1-C:2′,1′-L][1]OXA[4,7,10,13]TETRAAZACYCLOHEXADECIN-12-YL)-3-(M-TOLYL)PROPANAMIDE] ({NH(4-Et-phenyl)-CO}-[Phe(3-Me)][aThr][Hyp][Morpholine(3S-CO)]A[Pro(4R-Me)]; ester 2-C)
Sa-ClpP
  IC50: 2.31 ± 0.2 µM
Solubility determination
  μsol (μM): 48.4 ± 0.7 µM
  solubility kinetic at 10 min: 43.7 ± 0.9 µM (≈ 35.7 µg/mL)

## Cc1ccc(NC(=O)N[C@@H](Cc2cccc(C)c2)C(=O)N[C@@H]2C(=O)N3C[C@H](O)C[C@H]3C(=O)N3CCCC[C@H]3C(=O)N[C@@H](C)C(=O)N3C[C@H](C)C[C@H]3C(=O)O[C@H]2C)cc1 [Compound 26, (S)—N-((2R,6S,8AS,14AS,16R,20S,21S,23AS)-16-HYDROXY-2,6,21-TRIMETHYL-5,8,14,19,23-PENTAOXOOCTADECAHYDRO-1H,5H,14H,19H-PYRIDO[2,1-I]DIPYRROLO[2,1-C:2′,1′-L][1]OXA[4,7,10,13]TETRAAZACYCLOHEXADECIN-20-YL)-3-(M-TOLYL)-2-(3-(P-TOLYL)UREIDO)PROPANAMIDE] ({NH(4-Me-phenyl)-CO}-[Phe(3-Me)][aThr][Hyp][Pip]A[Pro(4R-Me)]; ester 2-C)
Sa-ClpP
  IC50: 4.26 ± 0.16 µM
Solubility determination; solubility in DPBS, 100 μM test samples, LCMS, read-out: LCMS
  solubility kinetic at 10 min: 45.3 ± 1.89 µM (≈ 36.3 µg/mL)
Solubility determination; solubility
  μsol (μM): 47.7 ± 0.4 µM

## C[C@@H]1C[C@H]2C(=O)O[C@@H](C)[C@H](NC(=O)[C@H](Cc3cccc(Cl)c3)NC(=O)Nc3ccc(Cl)cc3F)C(=O)N3CCC[C@H]3C(=O)N3CCN(C)C[C@H]3C(=O)N[C@@H](C)C(=O)N2C1 [Compound 33] ({NH(4-Cl-2-F-phenyl)-CO}-[Phe(3-Cl)][aThr]P[Piperazine(2S-CO,4-Me)]A[Pro(4R-Me)]; ester 2-C)
Sa-ClpP
  IC50: 3.16 ± 0.16 µM
Solubility determination
  μsol (μM): 17.2 ± 7.2 µM
  solubility kinetic at 10 min: 12.8 ± 2.8 µM (≈ 11 µg/mL)

## Cc1cccc(C[C@H](NC(=O)Nc2ccc3c(c2)OCCO3)C(=O)N[C@H]2COC(=O)[C@@H]3C[C@@H](C)CN3C(=O)[C@H](C)NC(=O)[C@@H]3CCCCN3C(=O)[C@@H]3CCCN3C2=O)c1 [Compound 22, (S)-2-(3-(2,3-DIHYDROBENZO[B][1,4]DIOXIN-6-YL)UREIDO)-N-((2R,6S,8AS,14AS,20S,23AS)-2,6-DIMETHYL-5,8,14,19,23-PENTAOXOOCTADECAHYDRO-1H,5H,14H,19H-PYRIDO[2,1-I]DIPYRROLO[2,1-C:2′,1′-L][1]OXA[4,7,10,13]TETRAAZACYCLOHEXADECIN-20-YL)-3-(M-TOLYL)PROPANAMIDE]
Sa-ClpP
  IC50: 4.12 ± 0.29 µM
Solubility determination
  μsol (μM): 7.6 ± 0.3 µM
  solubility kinetic at 10 min: 3.3 ± 0.2 µM (≈ 2.69 µg/mL)

## C[C@@H]1C[C@H]2C(=O)OC[C@H](NC(=O)[C@H](Cc3cccc(C(F)(F)F)c3)NC(=O)Nc3ccc(Cl)cc3F)C(=O)N3CCC[C@H]3C(=O)N3CCN(C)C[C@H]3C(=O)N[C@@H](C)C(=O)N2C1 [Compound 18, (S)-2-(3-(4-CHLORO-2-FLUOROPHENYL)UREIDO)-3-(3-(TRIFLUOROMETHYL)PHENYL)-N-((6AS,12S,15AS,17R,21S,23AS)-2,17,21-TRIMETHYL-6,11,15,20,23-PENTAOXOOCTADECAHYDRO-2H,6H,11H,15H-PYRAZINO[2,1-I]DIPYRROLO[2,1-C:2′,1′-L][1]OXA[4,7,10,13]TETRAAZACYCLOHEXADECIN-12-YL)PROPANAMIDE] ({NH(4-Cl-2-F-phenyl)-CO}-[Phe(3-CF3)]SP[Piperazine(2S-CO,4-Me)]A[Pro(4R-Me)]; ester 2-C)
Sa-ClpP
  IC50: 4.79 ± 0.27 µM
Solubility determination
  μsol (μM): 22.7 ± 0.8 µM
  solubility kinetic at 10 min: 22.6 ± 2.1 µM (≈ 19.9 µg/mL)

## Cc1cccc(C[C@H](NC(=O)Nc2ccc(Cl)cc2F)C(=O)N[C@@H]2C(=O)N3C[C@H](O)C[C@H]3C(=O)N3CCCC[C@H]3C(=O)N[C@@H](C)C(=O)N3C[C@H](C)C[C@H]3C(=O)O[C@H]2C)c1 [Compound 6, (S)-2-(3-(4-CHLORO-2-FLUOROPHENYL)UREIDO)-N-((2R,6S,8AS,14AS,16R,20S,21S,23AS)-16-HYDROXY-2,6,21-TRIMETHYL-5,8,14,19,23-PENTAOXOOCTADECAHYDRO-1H,5H,14H,19H-PYRIDO[2,1-I]DIPYRROLO[2,1-C:2′,1′-L][1]OXA[4,7,10,13]TETRAAZACYCLOHEXADECIN-20-YL)-3-(M-TOLYL)PROPANAMIDE] ({NH(4-Cl-2-F-phenyl)-CO}-[Phe(3-Me)][aThr][Hyp][Pip]A[Pro(4R-Me)]; ester 2-C)
Sa-ClpP
  IC50: 3 ± 0.2 µM
Solubility determination
  μsol (μM): 13.9 ± 1.4 µM
  solubility kinetic at 10 min: 12.6 ± 0.3 µM (≈ 10.6 µg/mL)

## Cc1cccc(C[C@H](NC(=O)Nc2ccc(Cl)c(F)c2)C(=O)N[C@@H]2C(=O)N3CCC[C@H]3C(=O)N3CCCC[C@H]3C(=O)N[C@@H](C)C(=O)N3C[C@H](C)C[C@H]3C(=O)O[C@H]2C)c1 [Compound 35, (S)-2-(3-(4-CHLORO-3-FLUOROPHENYL)UREIDO)-3-(M-TOLYL)-N-((2R,6S,8AS,14AS,20S,21S,23AS)-2,6,21-TRIMETHYL-5,8,14,19,23-PENTAOXOOCTADECAHYDRO-1H,5H,14H,19H-PYRIDO[2,1-I]DIPYRROLO[2,1-C:2′,1′-L][1]OXA[4,7,10,13]TETRAAZACYCLOHEXADECIN-20-YL)PROPANAMIDE] ({X2-CO}-[Phe(3-Me)][aThr]P[Pip]A[Pro(4R-Me)]; ester 2-C)
Solubility determination
  μsol (μM): 0.9 ± .95 µM
  solubility kinetic at 10 min: 0.002 ± 0.002 µM (≈ 0.00165 µg/mL)
